According to PubChem BioAssay (NCI):
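Five concentrations, 48 hours, 96-well plates. TGI denotes the concentration required for complete inhibition of growth.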

Key:
Test in all cases: inhibition of tumour cell growth, NCI panel, 48 h
[1] = system: HCT-116 colon
[2] = system: OVCAR-5 ovarian
[3] = system: KM20L2 colon
[4] = system: HOP-62 NSCLC
[5] = system: RXF 393 renal
[6] = system: IGROV1 ovarian
[7] = system: M19-MEL melanoma
[8] = system: SK-MEL-2 melanoma
[9] = system: DLD-1 colon
[10] = system: DMS 273 small cell lung
[11] = system: 786-0 renal
[12] = system: NCI/ADR-RES ovarian
[13] = system: MDA-N

**Q.** Which TGI [1] does the source give for `CCOc1cc2c(cc1OC)c[n+](C)c1c3cc(OC)c(OC)cc3ccc21` here?
**A.** > 100 µM

**Q.** What about the TGI [2] of the same compound?
**A.** > 85.2 µM

**Q.** And the TGI [3]?
**A.** > 100 µM

**Q.** What about the TGI [4] of the same compound?
**A.** > 100 µM

**Q.** And the TGI [5]?
**A.** 73.5 µM

**Q.** What about the TGI [6] of the same compound?
**A.** > 100 µM

**Q.** What about the TGI [7] of the same compound?
**A.** > 100 µM

**Q.** What about the TGI [8] of the same compound?
**A.** > 80.6 µM

**Q.** What about the TGI [9] of the same compound?
**A.** > 100 µM

**Q.** And the TGI [10]?
**A.** > 100 µM

**Q.** What about the TGI [11] of the same compound?
**A.** > 56.6 µM

**Q.** How did the TGI [1] turn out when `CCOC(=O)c1ccc(N2C(=O)/C(=C/c3ccc(N(CCC#N)CCC#N)cc3)N=C2c2cc([N+](=O)[O-])ccc2Cl)cc1` was run?
**A.** > 100 µM

**Q.** What about the TGI [2] of the same compound?
**A.** > 100 µM

**Q.** And the TGI [3]?
**A.** > 100 µM

**Q.** And the TGI [4]?
**A.** > 100 µM

**Q.** And the TGI [5]?
**A.** > 100 µM

**Q.** What about the TGI [6] of the same compound?
**A.** > 100 µM

**Q.** And the TGI [7]?
**A.** > 100 µM

**Q.** And the TGI [8]?
**A.** > 100 µM

**Q.** And the TGI [9]?
**A.** > 100 µM

**Q.** And the TGI [10]?
**A.** > 100 µM

**Q.** What does the source list for `Cc1ccccc1NC(=O)C(=O)C(C1OC(=O)c2ccccc21)[N+](=O)[O-]` (stereo unspecified)?
**A.** TGI [1]: > 100 µM; TGI [2]: > 100 µM; TGI [3]: > 100 µM; TGI [4]: > 100 µM; TGI [5]: > 100 µM; TGI [6]: > 100 µM; TGI [7]: > 100 µM; TGI [8]: > 100 µM; TGI [9]: > 100 µM; TGI [10]: > 100 µM

**Q.** Which TGI [1] does the source give for `O=C1O/C(=C(\Br)c2ccc([N+](=O)[O-])cc2)c2ccccc21` here?
**A.** > 100 µM

**Q.** What about the TGI [2] of the same compound?
**A.** > 100 µM

**Q.** What about the TGI [4] of the same compound?
**A.** > 100 µM

**Q.** And the TGI [12]?
**A.** > 100 µM

**Q.** What about the TGI [5] of the same compound?
**A.** > 100 µM

**Q.** And the TGI [6]?
**A.** > 100 µM

**Q.** And the TGI [13]?
**A.** > 100 µM

**Q.** And the TGI [8]?
**A.** > 100 µM

**Q.** What about the TGI [11] of the same compound?
**A.** > 100 µM

**Q.** With `O=C1C(NS(=O)(=O)c2ccccc2)=C(n2ccnc2)C(=O)c2ccccc21` as the compound, how does the TGI [1] read?
**A.** > 100 µM

**Q.** What about the TGI [2] of the same compound?
**A.** > 100 µM

**Q.** What about the TGI [4] of the same compound?
**A.** > 100 µM

**Q.** And the TGI [12]?
**A.** > 100 µM

**Q.** And the TGI [5]?
**A.** > 100 µM

**Q.** And the TGI [6]?
**A.** > 100 µM

**Q.** And the TGI [13]?
**A.** > 100 µM

**Q.** What about the TGI [8] of the same compound?
**A.** > 100 µM

**Q.** And the TGI [11]?
**A.** > 100 µM

**Q.** With `O=c1[nH]c2c(C(F)(F)F)c(Cl)c(-c3ccccc3)nc2o1` as the compound, how does the TGI [1] read?
**A.** 38.4 µM

**Q.** What about the TGI [2] of the same compound?
**A.** 58.2 µM

**Q.** And the TGI [4]?
**A.** > 100 µM

**Q.** And the TGI [12]?
**A.** 67.2 µM

**Q.** And the TGI [5]?
**A.** 75.3 µM

**Q.** And the TGI [6]?
**A.** > 100 µM

**Q.** And the TGI [13]?
**A.** 44.8 µM

**Q.** And the TGI [8]?
**A.** 52.7 µM

**Q.** What about the TGI [11] of the same compound?
**A.** > 100 µM

**Q.** With `CCN1CC2=C(OC(N)=C(C#N)C2c2ccc(Cl)cc2)/C(=C/c2ccc(Cl)cc2)C1` (stereo unspecified) as the compound, how does the TGI [1] read?
**A.** 54.9 µM

**Q.** And the TGI [2]?
**A.** > 100 µM

**Q.** And the TGI [4]?
**A.** 78.4 µM

**Q.** What about the TGI [12] of the same compound?
**A.** > 100 µM

**Q.** What about the TGI [5] of the same compound?
**A.** 31.9 µM

**Q.** And the TGI [6]?
**A.** > 100 µM

**Q.** And the TGI [13]?
**A.** > 100 µM

**Q.** And the TGI [8]?
**A.** > 100 µM

**Q.** And the TGI [11]?
**A.** 29.8 µM

**Q.** What does the source list for `CC(Nc1cccc(Cl)c1)c1ccncc1` (stereo unspecified)?
**A.** TGI [1]: > 100 µM; TGI [2]: > 100 µM; TGI [4]: > 100 µM; TGI [12]: > 100 µM; TGI [5]: > 100 µM; TGI [6]: > 100 µM; TGI [13]: > 100 µM; TGI [8]: > 100 µM; TGI [11]: > 100 µM

**Q.** For `CCCCCCc1cc2cc(C(=O)Nc3nc(C45CC6CC(CC(C6)C4)C5)cs3)c(=O)oc2cc1O`, which TGI [1] is on record?
**A.** 13.2 µM

**Q.** What about the TGI [2] of the same compound?
**A.** 71.3 µM

**Q.** What about the TGI [4] of the same compound?
**A.** 37.6 µM

**Q.** And the TGI [12]?
**A.** 80.5 µM

**Q.** What about the TGI [5] of the same compound?
**A.** 30.6 µM

**Q.** And the TGI [6]?
**A.** 46.9 µM

**Q.** What about the TGI [13] of the same compound?
**A.** 40.2 µM

**Q.** And the TGI [8]?
**A.** 31.4 µM

**Q.** What about the TGI [11] of the same compound?
**A.** 25.6 µM

**Q.** With `O=C(O)CSC1=NCCN1` as the compound, how does the TGI [1] read?
**A.** > 100 µM

**Q.** What about the TGI [2] of the same compound?
**A.** > 100 µM

**Q.** What about the TGI [4] of the same compound?
**A.** > 100 µM

**Q.** What about the TGI [12] of the same compound?
**A.** > 100 µM

**Q.** What about the TGI [5] of the same compound?
**A.** > 100 µM

**Q.** And the TGI [6]?
**A.** > 100 µM

**Q.** And the TGI [13]?
**A.** > 100 µM

**Q.** What about the TGI [8] of the same compound?
**A.** > 100 µM

**Q.** What about the TGI [11] of the same compound?
**A.** > 100 µM

**Q.** With `CCOC(=O)Cn1nnc2ccc(Nc3nc4ccccc4nc3C(=O)OCC)cc21` as the compound, how does the TGI [1] read?
**A.** > 100 µM

**Q.** What about the TGI [2] of the same compound?
**A.** > 100 µM

**Q.** And the TGI [4]?
**A.** > 100 µM

**Q.** What about the TGI [12] of the same compound?
**A.** > 100 µM

**Q.** What about the TGI [5] of the same compound?
**A.** > 100 µM

**Q.** And the TGI [6]?
**A.** > 100 µM

**Q.** And the TGI [13]?
**A.** > 100 µM

**Q.** What about the TGI [8] of the same compound?
**A.** > 100 µM

**Q.** What about the TGI [11] of the same compound?
**A.** > 100 µM

**Q.** `c1ccc(C/C(=N\Nc2nc3ccccc3[nH]2)c2ccccn2)cc1` was tested. Which TGI [1] did it give?
**A.** 5.18 µM

**Q.** What about the TGI [2] of the same compound?
**A.** 8.14 µM

**Q.** What about the TGI [4] of the same compound?
**A.** 12.6 µM

**Q.** What about the TGI [12] of the same compound?
**A.** 0.0936 µM

**Q.** What about the TGI [5] of the same compound?
**A.** 1.58 µM

**Q.** What about the TGI [6] of the same compound?
**A.** 0.327 µM

**Q.** What about the TGI [13] of the same compound?
**A.** 12.8 µM

**Q.** And the TGI [8]?
**A.** 15.3 µM

**Q.** And the TGI [11]?
**A.** 5.7 µM

**Q.** What does the source list for `CCCCOC(=O)Nc1ccc(S(=O)(=O)Nc2c(Cl)cccc2Cl)cc1`?
**A.** TGI [1]: 57.5 µM; TGI [2]: > 100 µM; TGI [4]: > 100 µM; TGI [12]: 65.8 µM; TGI [5]: > 100 µM; TGI [6]: 79.5 µM; TGI [13]: > 100 µM; TGI [8]: 66.8 µM; TGI [11]: 79.5 µM
